# From patent US8192750B2, “Pharmaceutical composition for the treatment of otomycosis” (priority 2006, dated 2012)
# “Also recorded” adds a separate entry of the source.
# What was measured:
# [1] = cited from earlier work
# [2] = solubility of griseofulvin in different solvents; type: physicochemical; conditions: mixtures with carriers
smiles,measurement,setting,value
"COC1=CC(=O)C[C@@H](C)[C@]12Oc1c(Cl)c(OC)cc(OC)c1C2=O [griseofulvin, Griseofulvin]",solubility in water,[1],insoluble in water
same,Solubility of griseofulvin in different solvents,[2],"higher in admixture with high molecular weight substances, such as herbal agents (e.g. tea tree oil), but not in admixtures with saccharides or alcohol; also recorded: higher in mixtures with high molecular weight carriers such as herbal agents, but not with saccharides or alcohol"
